Experimental data as given in patent publication US9895466B2, “Liposomal drug delivery system for bone cements” (UNIVERSITY COLLEGE CARDIFF CONSULTANTS LIMITED, priority 2013, dated 2018).

Tested on: Staphylococcus aureus (S. aureus)
Test: Microbial growth and zones of inhibition on agar plates
Format: cell-based
Conditions: 24 hours at 37° C.
Description: 10 mm diameter by 2 mm thick cylindrical bone cement samples were prepared as previously described for Palacos R, Palacos R+G and Palacos R with 200 mg of L61 liposomal gentamicin sulphate. Tryptone soya agar (TSA) was prepared by dissolving 40 g of tryptone soy agar medium in one liter of distilled water. The solution was boiled for one minute then sterilized in an autoclave at 121° C. for 15 minutes. The solution was allowed to cool to 45-50° C. before being dispensed into petri dishes (9 cm diameter). The petri dishes were cooled to room temperature then stored at 8-15° C. until use. Staphylococcus aureus (S. aureus) was cultured in tryptic soy broth (TSB) for 18-24 hours at 37° C. A sterile cotton swab was used to spread the inoculum across the TSA petri dish. The petri dish was turned by 60° and the process was repeated to ensure complete surface coverage. A 10 ug gentamicin standard disc was placed on the petri dish as a control and pressure was applied to the top of the disc to ensure full surface contact. […] The petri dish was then incubated at 37° C. for 18-24 hours, after which, the zones of inhibition around the samples and gentamicin disc were measured. Images of the zones of inhibition were taken and measured using ImageJ software (National Institutes of Health, Maryland, USA). The zones of inhibition were measured as the radius of the zone minus the radius of the sample. […]

gentamicin sulphate was tested, and the “Zone of inhibition against S. aureus” value was “created a zone of inhibition”.
